In article PMC3409115, “Diverse Inhibitor Chemotypes Targeting Trypanosoma cruzi CYP51” (PLoS Neglected Tropical Diseases, 2012):
pEC50, pKd: −log10 of the molar value. Entries after “also recorded” stand apart in the source; their conditions may differ. Like-named read-outs stand apart in the source and are kept apart here.

Key:
T. cruzi CYP51 [1] = molecular target: T1, T. cruzi CYP51 (Trypanosoma cruzi, UniProt Q7Z1V1); assay: HTS spectral-mode binding screen, type II difference spectra scored 0-5
T1 construct: had the first 21 residues upstream of K22 replaced with the fragment MAKKKKK; His6 (C); made in house
T1 sequence (Q7Z1V1 15-481, looked up, natural form): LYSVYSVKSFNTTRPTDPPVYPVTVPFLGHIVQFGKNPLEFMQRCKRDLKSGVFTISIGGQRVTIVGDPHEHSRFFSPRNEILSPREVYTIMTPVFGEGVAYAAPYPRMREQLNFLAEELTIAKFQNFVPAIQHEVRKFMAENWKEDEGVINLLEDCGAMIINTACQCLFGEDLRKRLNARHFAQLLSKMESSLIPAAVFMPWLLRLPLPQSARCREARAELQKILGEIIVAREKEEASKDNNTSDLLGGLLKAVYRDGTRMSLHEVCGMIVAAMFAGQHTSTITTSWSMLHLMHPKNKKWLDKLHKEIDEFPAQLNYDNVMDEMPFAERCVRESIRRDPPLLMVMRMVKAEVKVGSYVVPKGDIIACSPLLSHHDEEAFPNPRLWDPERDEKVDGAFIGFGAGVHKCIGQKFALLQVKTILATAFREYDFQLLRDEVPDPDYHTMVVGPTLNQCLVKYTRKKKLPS

T. cruzi CYP51 [2] = molecular target: T1, T. cruzi CYP51; assay: Low throughput UV-vis binding assay; conditions: read-out: KD
Method: Hit validation in the low throughput UV-vis binding assay was performed according to a previously published but somewhat modified protocol. UV-vis absorption spectra were recorded on a Cary scanning spectrophotometer (Varian) in the 1-cm path length quartz cuvette at 23°C in 100 mM potassium phosphate buffer, pH 7.5, containing 10% glycerol, with CYP51 concentration of 0.5 µM. Compound solutions used for titration were prepared in DMSO at 100 µM and added in 2-µl aliquots to each 3 ml sample using a P2 pipetman (Gilson). Binding affinity of hits was estimated using the quadratic tight-binding equation [27]: […]
where Aobs is the absorption shift determined at any ligand concentration; Amax is the maximal absorption shift obtained at saturation; KD is dissociation constant for the inhibitor-enzyme complex; S is the ligand concentration; Et is the total enzyme concentration.

[3] = system: T. cruzi-infected skeletal myoblasts (intracellular amastigotes); assay: Hit cross-validation in T. cruzi-infected mammalian cells (image-based assay); format: cell-based, Trypanosoma cruzi
Method: Bovine embryo skeletal muscle cells or mouse C2C12 myoblasts (ATCC#CRL-1772) used in the cross-validation assay, were cultivated respectively in RPMI 1640 medium supplemented with 5% horse serum and Dulbecco's Modified Eagle's Medium H-21 containing 4.5 g/l glucose (DMEM H-21) (Cell Culture Facility, UCSF), supplemented with 5% fetal bovine serum (FBS) (Sigma Chemical Co., St. Louis, MO, USA), 25 mM HEPES, 2 mM L-glutamine, 100 U/ml penicillin, 100 µg/ml streptomycin. T. cruzi CAI-72 trypomastigotes were obtained from supernatant of infected cultures 4 to 7 days post-infection. Cultures were maintained at 37°C in an atmosphere of 5% CO2. To harvest parasites, the supernatant of infected cultures containing released trypomastigotes was collected and centrifuged at 600 rpm for 5 min to remove cell debris; the pellet was then discarded and the trypomastigotes remaining in the media were concentrated by spinning the culture tubes at 3300 rpm for 15 minutes. The parasite pellet was re-suspended in 2–5 ml of fresh media. Trypomastigote concentration was determined using a Neubauer hemocytometer.
(§1) Compound cross-validation in T. cruzi infected skeletal myoblasts (bovine embryo skeletal muscle or C2C12 lineage) was performed according to the protocol adapted from Engel and co-authors. Compounds stored as 10 mM stocks in DMSO were freshly diluted immediately prior to use. […] To prepare plates for the assay, skeletal myoblasts cultured in […] flasks were washed once with phosphate buffered saline (PBS) and then incubated with 0.25% trypsin in PBS for 1–3 minutes for detachment. The trypsin solution was removed and myoblasts were released from the flask bottom. Fresh medium was added and cell concentration was determined using a Neubauer hemocytometer. Myoblasts in 50 µl of culture medium were transferred to the clear-bottom wells of black 96-well plates (Greiner Bio-One, #655090) at a density of 1500 cells/well and infected with 50 µl trypomastigote culture at 7500 parasites/well (1∶5 ratio). The cells were allowed to adhere and spread for 24 h in the incubator before the media was removed and 100 µl of fresh medium containing 0, 0.04, 0.12, 0.37, 1.10, 3.30 or 10 µM of test compound was added to each well, followed by 72 h incubation at 37°C in an atmosphere of 5% CO2. Posaconazole was used as a positive control at the same concentrations as the test compounds. The cells were then fixed by adding 100 µl/well of 8% formaldehyde in PBS, resulting in a 4% working concentration of formaldehyde. To stain the nucleus of the host cell and the nucleus and kinetoplast of parasites, cell membranes were first permeabilized by washing once with 100 µl of 0.1% Triton X-100 in PBS, then treated for 1 h with 0.2 µg/ml of the fluorescent DNA dye, 4,6-diamidino-2-phenylindole (DAPI), followed by one wash with PBS. The fixed plates were kept at 4°C and protected from light until images were acquired.
(§2) Plates were allowed to equilibrate to room temperature and images were acquired by the IN Cell Analyzer 2000 (GE Healthcare) with a 20× objective, 5 fields per well, with 350/50 nm and 460/40 nm fluorescent excitation and emission filters. In the absence of drug cytotoxicity, at least 800 cells were imaged and counted per well. The images were processed and analyzed by IN Cell Analyzer Developer 1.6 software. The size parameters used to segment host and parasite organelles were 125 µm^2 for host nucleus, and 1–2 µm^2 for parasite nucleus/kinetoplast. Since DAPI also strongly stains host heterochromatin regions that display as shapes resembling parasites ( Figure 3 ), particles co-localized to host nuclei were excluded from quantification, while parasite aggregates near the host nucleus were counted as infected cells.

[4] = system: host cell (skeletal myoblasts, bovine embryo skeletal muscle or C2C12); assay: Host cell toxicity in the cross-validation assay; format: cell-based; conditions: host cells in cross-validation assay, up to 10 µM
Method: as §1
as §2, with “cells. Numbers of host cells and intracellular amastigotes were determined based on host cell and parasite nucleus and parasite kinetoplast quantification, providing a measure of growth inhibition during the first 72 h of post-infection treatment compared to untreated controls.” for “cells.”
^aToxicity was assessed as the highest percentage of host cell growth inhibition caused by compound treatment. Scores are assigned as 1-<20%; 2-21-30%; 3- 31-40%; 4-41-50% and 5->50% growth inhibition.

[5] = system: T. cruzi trypomastigote strain CAI/72 in C2C12 myoblasts; assay: Trypanocidal assay; format: cell-based, Trypanosoma cruzi; conditions: 14 days treatment, then one week compound-free
Method: Compounds cross-validated with low EC50 against T. cruzi infected cells were further evaluated to determine the “cidal” concentration at which host cells are effectively cured, using the protocol adapted from Engel et al 1998 [30]. To allow long term treatment and avoid culture overgrowth, C2C12 myoblasts were seeded at low density in 96 well plates (10^3 cells/well) and cultured with DMEM H-21 medium supplemented with low FBS concentration (1%), 25 mM HEPES, 2 mM L-glutamine, 100 U/ml penicillin and 100 µg/ml streptomycin. The cells were infected with T. cruzi trypomastigote strain CAI/72 (5 parasites/cell) for 24 h and treated with 0, 0.04, 0.12, 0.37, 1.10, 3.30 or 10 µM test compounds in 100 µl of medium for 14 days. During the course of treatment, medium supplemented with test compounds was replaced every 72 h. After 14 days, drug pressure was withdrawn and incubation continued in the compound-free medium for another week, during which cultures were monitored for reappearance of T. cruzi trypomastigotes in the supernatant.

[6] = system: sterol biosynthesis in T. cruzi amastigotes; assay: Lipid analysis of T. cruzi amastigotes (GC-MS of membrane sterols); format: cell-based, Trypanosoma cruzi; conditions: amastigotes in C2C12 myoblasts, 24 h drug treatment, concentrations 5x below cidal; posaconazole 100 nM
Method: To grow intracellular amastigotes for lipid analysis, C2C12 mouse skeletal myoblasts (4×10^6 cells) cultured in 150 cm^2 flasks as described above were infected with 80×10^6 trypomastigotes for 24 h. The cultures were treated with test compounds 72 h post-infection at concentrations 5× below cidal to avoid completely killing the parasites. Posaconazole at 100 nM was used as a positive control. […] Cells were harvested 96 h post-infection and after 24 h of drug treatment. Cell detachment was initiated by brief treatment with 10 ml of 0.25% trypsin in PBS, followed promptly by replacement with 10 ml of fresh media containing FBS. Harvested cells were washed 3× with 25 ml of PBS to remove FBS and released trypomastigotes. The suspension of infected cells was then transferred to a glass tube and centrifuged at 2000 rpm for 5 min. After washing with PBS, 2 ml of chloroform-methanol solution (2∶1 ratio) was added to re-suspend the cell pellet. Organic solvents were then evaporated under N2 flow, allowing the pellet to dry.
For total lipid extraction, the dry cell pellet was treated with 2 ml chloroform for 24 h. Polar molecules were removed by washing the organic phase 3× with 3 ml water. The organic phase containing the sterols was subsequently dried on an evaporator under N2 flow. The lipids were re-suspended in 2 ml of chloroform-methanol (9∶1 ratio), washed again 3× with 3 ml water, dried under N2 flow and re-suspended in acetonitrile. After an additional wash 3× with 3 ml water, the acetonitrile was dried under an N2 stream. Extracted dry sterols were re-dissolved in hexane and derivatized with N,N-bis(trimethylsilyl)-2,2,2-trifluoroacetamide (BSTFA) (Pierce) by incubating at 37°C for at least 2 hours. Sterols as their trimethylsilyl (TMS) derivatives were analyzed by gas chromatography and mass spectrometry (GC-MS). GC-MS analysis and lipid identification were performed as described previously.

T. cruzi CYP51 [7] = molecular target: T1, T. cruzi CYP51; assay: Primary HTS in two-wavelength mode; format: binding; conditions: 2 µM CYP51, 528 measurements
[8] = spectral mode, four serial dilutions 2 µM to 12.5 µM, 2 µM CYP51
[9] = type II difference spectra scored 0-5, second highest rated hit compound cluster
[10] = UV-vis titration, 0.5 µM CYP51, quadratic tight-binding equation, lower limit of method ~5 nM
[11] = T. cruzi-infected myoblasts, 72 h treatment, read-out: EC50 against T. cruzi parasites in HTS assay used to rank order the hits
[12] = Trypanosoma cruzi, Myoblast, 72 h, T. cruzi-infected myoblasts, 72 h treatment, read-out: EC50 against T. cruzi parasites in HTS assay used to rank order the hits

`COC(=O)C1=C(N)Oc2cc(C)n(CCc3ccc(OC)c(OC)c3)c(=O)c2C1c1cccnc1` (stereo not shown) [Compound 6, methyl 2-amino-6-[2-(3,4-dimethoxyphenyl)ethyl]-7-methyl-5-oxo-4-pyridin-3-yl-5,6-dihydro-4H-pyrano[3,2-c]pyridine-3-carboxylate] showed an HTS binding score (T. cruzi CYP51 [1]; [8]) of 3, an HTS binding score (T. cruzi CYP51 [1]; [9]) of 3 and a pKd (T. cruzi CYP51 [2]; [10]) of 7.12. The pEC50 [3, 11] was 6.21, the pEC50 [3, 12] was 6.21 and the pEC50 ([3]; Trypanosoma cruzi, Myoblast, in Mus musculus, T. cruzi amastigotes cultured in mouse myoblasts, averaged from two independent assays, read-out: EC50 in low throughput validation (repurchased hit)) was 7.10. The “Toxicity score (highest percentage of host cell growth inhibition)” value [4] was 1 (1-<20%).
With `Cc1cccc(Nc2nc(-c3ccncc3)cs2)n1` [Compound 9] the HTS binding score (T. cruzi CYP51 [1]; [8]) was 4, the pKd (T. cruzi CYP51 [2]; [10]) was no less than 8.30 and the pEC50 [3, 11] was 6.04. The pEC50 ([3]; Trypanosoma cruzi, Myoblast, 72 h, T. cruzi-infected myoblasts, 72 h treatment, repurchased compound, read-out: EC50 averaged from two independent cross-validation assays for individually repurchased hits) was 6.24, the pEC50 [3, 12] was 6.04 and the “Toxicity score (highest percentage of host cell growth inhibition)” value [4] was 1 (1-<20%).
Compound `CC1(C)CC(=O)C2=C(C1)c1c(ccc3ccccc13)NC2c1cccnc1` (stereo not shown) [Compound 19] has an HTS binding score (T. cruzi CYP51 [1]; [8]) of 5, an HTS binding score (T. cruzi CYP51 [1]; [9]) of 5 and a pKd (T. cruzi CYP51 [2]; T. cruzi CYP51) of no less than 8.30. For the same compound, the pEC50 [3, 12] was 5.60 and the “Toxicity score (highest percentage of host cell growth inhibition)” value [4] was 3 (3- 31-40%).
`CC[C@@H]([C@H](C)O)n1ncn(-c2ccc(N3CCN(c4ccc(OC[C@@H]5CO[C@@](Cn6cncn6)(c6ccc(F)cc6F)C5)cc4)CC3)cc2)c1=O` [posaconazole, reference compound] was tested, and the pEC50 ([3]; Trypanosoma cruzi, Myoblast, 72 h, T. cruzi-infected myoblasts, 72 h treatment, read-out: EC50 in image-based HTS cross-validation assay) was 9.00, the Trypanocidal concentration [5] was 0.6 nM and the “Effect on membrane sterol composition by GC-MS” value [6] was “lanosterol (f) and eburicol (h) dominated the GC-MS traces; also recorded: fecosterol (e) was completely inhibited”.
For `CC1CCC(C(=O)NC(Cc2c[nH]c3ccccc23)C(=O)Nc2ccncc2)CC1` (stereo not drawn) [reference, α-[(4-methylcyclohexyl)carbonylamino]-N-4-pyridinyl-1H-indole-3-propanamide], the “ΔA = A425−A390” value (T. cruzi CYP51 [7]) was 0.043±0.004.
